Reference: patent publication US20080089947A1, “Calcium Influx Inhibitors in the Treatment of Ischemia” (priority 2006, published 2008)
In brackets after ≈: the same amount, converted by molar mass. Entries after “also recorded” stand apart in the source; their conditions may differ.

Key:
[1] = test system: liver ischemia/reperfusion injury
Protocol: Methods: Following overnight fast, male Sprague-Dawley rats were placed under general anesthesia with isoflurane gas (3%, 2 L O2). Via a midline incision, a laparotomy was performed and the portal vein, hepatic artery, and bile duct were identified and dissected free from surrounding structures. […] Approximately 70% liver ischemia was created by using an atraumatic vessel clamp (S&T Microclamp B-3, Fine Science Tools, Foster City, Calif.) to occlude the portal vein and hepatic artery branches to the median and left liver lobes. […] The clamp was removed after 1 hour and the livers were given three hours to reperfuse with blood while the animals were conscious. Liver injury was assessed by serum levels of AST, ALT, LDH, which are three standard serum markers of acute ischemia/reperfusion injury to the liver. Histologic liver analysis using H&E staining and TUNEL assay, which identifies terminally damaged (apoptotic) cells, were used to look directly at cell damage in the collected livers.
Serum Transaminase Determinations: Serum collected from each animal at the time of euthanasia was analyzed for aspartate aminotransferase (AST), alanine aminotransferase (ALT), and lactic acid dehydrogenase (LDH) concentrations.
Assessment of apoptosis: In order to quantitate the rate of apoptosis in a sensitive manner, the inventors performed terminal deoxynucleotidyl transferase-mediated deoxyuridine triphosphate nick-end labeling (TUNEL) on paraffin embedded tissue sections from each animal. This assay was performed following the manufacturer's recommendations for a commercially available kit (ApopTag Plus Fluorescein In Situ Apoptosis Detection Kit, Chemicon International, Inc., Temecula, Calif.). Five randomly selected fields from each tissue section were examined at an original magnification of 200×. The number of positively staining cells per field was recorded. The average number of positively staining nuclei per field for each animal was used for analysis.
Quantitation of liver necrosis: Paraffin embedded tissue sections were stained with hematoxylin and eosin (H&E) and examined at an original magnification of 200×. Digital photomicrographs were made from five randomly selected fields of each tissue section. […] ImagePro software was used to create specific overlays of any region of necrosis in each of the photomicrographs. Using these overlays, percent area necrosis was calculated for each photomicrograph. The average percent area necrosis for each animal was then used for analysis.

[2] = test system: hepG2 cells; conditions: 100 μM in UW prior to cold storage, 6 hour ischemic
Protocol: To investigate the cellular mechanisms of 2-APB, an in vitro model using hepG2 cells transfected with GFP-tagged cytochrome c was used. […] Cells were grown at 37° C., 5% CO2 in MEM (ATCC, Manassas, Va.), with 10% fetal bovine serum, and 1% penicillin/streptomycin to 80% confluence. The media was replaced with UW solution and cells were incubated at 4° C. in hypoxic conditions for 6 hours. Hypoxia was achieved by placing the cells in an airtight incubator (Form a Scientifica, Marietta, Ohio), which was flushed with 5% CO2 and 95% N2 until the oxygen content in the container reached <0.1%, as verified using a dissolved O2 meter (Model 4000, VWR Scientific Products, Suwannee, Ga.). To render the storage solution hypoxic before experiments were carried out, UW was preincubated in the hypoxic chamber in an open sterile container for 8 h before experiments were carried out. […] Following 6 hours of hypothermic storage, the UW was replaced with warm, oxygenated media, and the cells were incubated at 37° C. Cytoplasmic extracts were harvested in lysis buffer (10 mM of KCl, 10 mM of HEPES, 1 mM of NaEDTA, 200 mM of Mannitol, 50 mM of sucrose) immediately following storage and after 60, 120, and 180 min of rewarming. HepG2 cytoplasmic extracts were harvested before exposure to storage conditions to serve as a control (untreated control). […]

[3] = test system: liver ischemia/reperfusion injury; remark: listed apart in the source
Protocol: 2-APB (2 mg/kg in DMSO), or vehicle (DMSO) was injected into the portal vein following 1 hour of ischemia, concurrent with removal of the vascular clamp. Animals were sacrificed after 3 hours of reperfusion (n=6 per group). Serum AST, ALT, and LDH levels were measured, and liver samples were evaluated histologically using H&E and TUNEL staining. To investigate the effect of 2-APB at the cellular level, an I/R model in HepG2 cells transfected with GFP-tagged cytochrome c was used. Statistical significance was assessed using Student t-test.

[4] = test system: liver transplantation; conditions: donor livers cold stored 24 hours in UW containing 2-APB
Protocol: In further experiments, full scale liver transplants were performed in rats. Livers were harvested from male Sprague-Dawly rats and cold stored for 24 hours in UW solution, or UW containing 2-APB. The livers were then removed from cold storage and transplanted into recipient rats. The operations were performed under general anesthesia, and the animals were followed after surgery for 2 days.

[5] = cited from earlier work
[6] = test system: mitochondrial calcium uptake (mitochondrial calcium uniporter); assay: 45Ca2+ uptake in isolated liver mitochondria; type: biochemical, rat; conditions: for EC50: isolated mitochondria, pyruvate and malate, read-out: EC50 of inhibition of mitochondrial calcium uptake
Protocol: Livers were isolated from male Sprague-Dawley rats (300 g). Rats were anesthetized with isoflurane and sacrificed by cervical dislocation. […] Briefly, the liver was minced and homogenized in liver homogenization buffer (LHB)(0.2 M mannitol, 50 mM sucrose, 10 mM KCl, and 1 mM Na2EDTA, pH=7.4, KOH). The homogenate was filtered through gauze and centrifuged 2 times for 10 min at 1,000× g. The supernatant was collected and centrifuged for 10 min at 3,000× g. The pellet was washed twice and resuspended in calcium-free LHB without EDTA to a concentration of 2 mg/mL. All steps were performed at 4° C.
A combination of metabolic substrates pyruvic acid and malic acid (final concentration 1 mM each) was used as a source of mitochondrial energy. Radioactive ^45Ca^2+ (NEN Life Sciences Products, Inc., Boston, Mass.) was added to the incubation buffer (final concentration range: 0.1-2.0 μM). The experiments were initiated by addition of mitochondria to the incubation buffer (final concentration 0.2 mg/ml). 2-APB (in DMSO) was added at concentrations from 0-100 μM to determine its effects on mitochondrial calcium uptake. Mitochondria were incubated in a 37° C. shaking water bath for 30 minutes, filtered, and washed. Accumulated mitochondrial ^45Ca^2+ was then measured using liquid scintillation counting in a Beckman LS6000IC beta counter. Mitochondria in incubation buffer without pyruvic acid and malic acid served as background controls. Ruthenium red (10 μM), a uniporter antagonist, was tested in all conditions to determine inhibitory capacity on observed mitochondrial calcium uptake, and to ensure that all observed calcium uptake was through the uniporter.
A combination of metabolic substrates pyruvic acid and malic acid was used as a source of mitochondrial energy. Radioactive ^45Ca^2+ was added to the incubation buffer (final concentration range: 0.1-2.0 μM). […] The calcium uptake experiments were initiated by addition of mitochondria to the incubation buffer (final concentration 0.2 mg/ml). Mitochondria were incubated in a 37° C. shaking water bath for 30 minutes, filtered, and washed, and calcium uptake quantified. Mitochondria in incubation buffer without pyruvic acid and malic acid served as background controls.

[7] = test system: mitochondrial calcium uptake; assay: 45Ca2+ uptake with ATP in mitochondria from non-ischemic and 24 h cold-stored livers; type: biochemical, rat
Protocol: Methods: Rat livers were perfused and stored using a previously reported technique (Belous et al., 2003). Briefly, an abdominal incision was made and the portal vein was cannulated with a 20-gauge cannula. The liver was then perfused with 30 ml 4° C. University of Wisconsin solution (UW). Half of the liver was processed for calcium uptake experiments immediately, while the other half was first stored for 24 hours in 4° C. UW solution (ischemic cold storage). Mitochondria were isolated from the liver as described in Example 1. Mitochondrial calcium uptake experiments were performed on isolated mitochondria from both the ischemic and non-ischemic portions of the liver as described in Example 1. In order to simulate the cellular conditions present during ischemia/reperfusion, 1 mM ATP was added to the incubation buffer. The selective, membrane-permeable PLC inhibitor, U-73122, was added to mitochondrial calcium uptake reaction tubes to a final concentration of 5 μM. This compound was tested on mitochondria isolated from both ischemic and non-ischemic livers to determine the effect of PLC inhibition on mitochondrial calcium uptake following ischemia/reperfusion. […] Ruthenium red (10 μM) was used to block the uniporter and ensure that all observed calcium uptake was ruthenium red-sensitive, and thus entering solely through the uniporter. To simulate reperfusion, mitochondria were incubated for 30 minutes in a 37° C. water bath with ATP present, after which the total mitochondrial calcium uptake was quantified as described in Example 1.

[8] = test system: PLC; conditions: read-out: EC50 reported for PLC inhibition in intact cells; cited from earlier work
[9] = test system: liver ischemia/reperfusion injury; assay: 70% liver ischemia/reperfusion, ruthenium red pretreatment; type: in vivo, rat
Protocol: Thirty minutes prior to the initiation of liver ischemia, animals received ruthenium red (30 mg/kg in NaCl) or vehicle (0.9% NaCl) IV. Ischemia was carried out for one hour. The total anesthesia time for the animals was 90 minutes. Sham operated animals received laparotomy, mobilization of the liver, and underwent equivalent anesthesia. Following vascular clamp removal, animals were allowed to reperfuse for periods of 15 minutes, 1 hr, 3 hr, or 6 hr. At the time of animal sacrifice, serum was collected, and liver tissue was preserved for histological analysis. A total of 40 animals were used for this experiment. Ten animals were used for each time point: 4 ischemia/reperfusion, 4r ischemia/reperfusion with ruthenium red pretreatment, and 2 sham operated animals. […] All experimental measurements and data were obtained as detailed in Example 2.

[10] = 0.5-7.5 μM, 0.2 μM 45Ca2+, baseline 0.14% DMSO
[11] = 30 mg/kg, 30 min before 1 h ischemia, 6 hours of reperfusion

## NCCOB(c1ccccc1)c1ccccc1 [2-APB, 2-aminoethoxydiphenyl borate]
[1]; 2 mg/kg in DMSO, portal vein, after sham operation
  liver damage by serum AST, ALT, LDH in sham-operated animals: neither 2-APB nor the vehicle, DMSO, were damaging to the liver
[1]; 2 mg/kg in DMSO, portal vein, before 1 h ischemia, 3 h reperfusion
  rise in serum AST, ALT and LDH: eliminated the rise in AST, ALT and LDH
[1]; 2 mg/kg portal vein before 1 h ischemia, 3 h reperfusion
  liver histology 400×: Cells are healthy and appear identical to the normal liver cells
[1]; 2 mg/kg portal vein before 1 h ischemia, 3 h reperfusion, H&E and TUNEL
  cells undergoing cell death: ≤ 2%
[2]
  release of GFP-tagged cytochrome c into the cytoplasm: prevented this release
[3]; 2 mg/kg in DMSO, portal vein at onset of reperfusion, 3 h reperfusion
  elevation of serum AST, ALT and LDH: significantly inhibited
[3]; 2-APB administered during reperfusion
  liver necrosis, H&E histology: little evidence of liver necrosis
[4]
  Mortality at 2 days: 0%
[5]
  solubility in DMSO: 20 mg/mL (≈ 88.8 mM)
  solubility in ethanol: 25 mg/mL (≈ 111 mM)
[6]; 30 min, 37° C.
  EC50: 2000 to 3000 nM
[6]; range of 1-100 μM 2-APB
  mitochondrial calcium influx: consistently and dose-dependently inhibited

## COc1ccc2c(c1)CCC1C2CCC2(C)C(NCCCCCCN3C(=O)C=CC3=O)CCC12 (stereo not drawn) [U-73122, 1-[6-((17β-3-Methoxyestra-1,3,5(10)-trien-17-yl)amino)hexyl]-1H-pyrrole-2,5-dione]
[5]
  solubility in DMSO: 1 mg/mL (≈ 2.15 mM)
  solubility in ethanol: 0.5 mg/mL (≈ 1.08 mM)
[6]; 5 μM or greater U-73122
  inhibition of mitochondrial calcium uptake: 90-100%
[6]; [10]
  mitochondrial calcium uptake: dose-dependently inhibited
[6]; 30 min, 37° C.
  EC50: 2000 to 3000 nM
[7]; 5 μM, mitochondria from ischemic livers (24 h 4° C. UW), vs. ATP and calcium alone
  decrease of mitochondrial calcium uptake: 85±2%
[7]; 5 μM, mitochondria from non-ischemic livers, vs. ATP and calcium alone
  decrease of mitochondrial calcium influx: 54±5%
[8]
  EC50: 1000 to 2100 nM

## COc1ccc2c(c1)CC[C@@H]1[C@@H]2CC[C@]2(C)[C@@H](NCCCCCCN3C(=O)CCC3=O)CC[C@@H]12 [U-73343, 1-[6-((17β-3-Methoxyestra-1,3,5(10)-trien-17-yl)amino)hexyl]-2,5-pyrrolidinedione]
[6]; [10]
  mitochondrial calcium uptake: no effect; also recorded: did not significantly affect
[7]; 5 μM, mitochondria from ischemic livers (24 h 4° C. UW)
  mitochondrial calcium uptake: slight and insignificant decrease; also recorded: no effect
[7]; 5 μM, mitochondria from non-ischemic livers
  mitochondrial calcium uptake: slight but significant increase; also recorded: did not

## N.N.N.N.N.N.N.N.N.N.N.N.N.N.[Cl-].[Cl-].[Cl-].[Cl-].[Cl-].[Cl-].[O-2].[O-2].[Ru+3].[Ru+3].[Ru+4] [ruthenium red]
[9]; [11]
  serum ALT: 294±39
  serum AST: 597±121
[9]; 3 and 6 hours of reperfusion
  liver necrosis: significantly decreased
[9]; 3 hours of reperfusion
  AST and ALT levels: trend for the animals pretreated with ruthenium red to have lower AST and ALT levels
  liver necrosis, percent area: 5%±2%
[9]; 6 hour reperfusion time point
  reduction in ALT levels: 4 fold
  reduction in AST levels: 2.5 fold
[9]; 6 hours of reperfusion
  liver necrosis, percent area: 3%±1%
[9]; all reperfusion time points (15 min, 1, 3, 6 hr)
  rate of apoptosis (TUNEL): significantly decreased
[9]; pretreatment of sham operated animals vs. vehicle alone
  AST or ALT levels in sham operated animals: did not alter
[5]
  solubility in water: soluble in water
[6]; 10 μM ruthenium red, 30 min, 37° C.
  mitochondrial calcium uptake: completely blocked
[7]; 10 μM ruthenium red, mitochondria from both ischemic and non-ischemic livers
  mitochondrial calcium uptake: prevented calcium uptake
[7]; 10 μM ruthenium red, mitochondria from both ischemic and non-ischemic livers, listed as Ruthenium red
  mitochondrial calcium uptake: completely blocked

## Ru360
[5]
  solubility in water: soluble in water
